Test results published in US20090030086A1, “ANTIMICROBIAL AGENTS” (priority 2005, published 2009).
In brackets after ≈: the same amount, converted by molar mass.

Tests used:
S. aureus ATCC 29213 [1] = experiment: MBC assay; assay type: cell-based, Staphylococcus aureus
Outline: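 Follows an MIC assay; samples sub-cultured onto non-selective agar and inspected visually for growth to give the minimum lethal concentration. Culture on Mueller-Hinton medium, pH 7.2, aerobic, 37° C, 24 hours.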

S. aureus ATCC 29213 [2] = experiment: Disc diffusion assay (DDA); assay type: cell-based, Staphylococcus aureus; details: Staphylococcus aureus, ATCC29213; S. aureus ATCC 29213; unsupplemented agar; 200 μg per disc (thymoquinone 50 μg, 2,6-dimethoxy-p-benzoquinone 100 μg); read-out: DDA (diameter of zone of inhibition)
Outline: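 Paper discs loaded with test compound (usually 200 μg/disc), solvent evaporated ≥30 min, placed on inoculated Mueller-Hinton agar pH 7.2. Incubated aerobically at 37 °C for 24 h; inhibition zone diameter measured and area calculated as π(D/2)^2.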

P. acnes PPR-007 = experiment: Disc diffusion assay (DDA); assay type: cell-based, Propionibacterium acnes; details: resistance Clin, 200 μg per disc
Description: (§1) The Propionibacterium spp organisms were cultured and maintained on Wilkins-Chalgren Anaerobe Medium (agar and broth) at pH 6.0; cultures were incubated anaerobically at 37° C. for 72 hours.
(§2) A sterile paper disc was impregnated with a sample of the test compound and a minimum of 30 minutes allowed for the solvents to evaporate as far as possible. The disc was then placed on an agar plate onto which the test micro-organism had been inoculated. The plate was then incubated under the conditions described above, following which it was examined visually for signs of bacterial growth. If the test compound had antimicrobial activity, a circular zone of no growth would be obtained around the disc. The diameter of this zone of “inhibition” was measured using a ProtoCOL™ automated zone sizer (Synbiosis, Cambridge, UK). In general, a greater diameter and/or area of the zone of inhibition indicates a greater antimicrobial activity in the relevant test compound, although other factors such as test compound mobility through the agar gel may also influence the result.
(§3) The area of the zone of inhibition was calculated from the measured zone diameter (D) using the formula π(D/2)^2.
(§4) For the DDA assays, 200 μg of TBHQ was loaded onto each disc. The solvent used for the TBHQ was ethanol.

P. acnes PRP-002 = experiment: Disc diffusion assay (DDA); assay type: cell-based, Propionibacterium acnes; details: resistance Tet/MLS, 200 μg per disc
Description: as §1, §2, §3, §4

P. acnes PRP-003 = experiment: Disc diffusion assay (DDA); assay type: cell-based, Propionibacterium acnes; details: resistance Tet, 200 μg per disc
Description: as §1, §2, §3, §4

P. acnes PRP-008 = experiment: Disc diffusion assay (DDA); assay type: cell-based, Propionibacterium acnes; details: resistance Clin, 200 μg per disc
Description: as §1, §2, §3, §4

P. acnes PRP-023 = experiment: Disc diffusion assay (DDA); assay type: cell-based, Propionibacterium acnes; details: resistance MLSK, 200 μg per disc
Description: as §1, §2, §3, §4

P. acnes PRP-046 = experiment: Disc diffusion assay (DDA); assay type: cell-based, Propionibacterium acnes; details: resistance None, 200 μg per disc
Description: as §1, §2, §3, §4

P. acnes PRP-059 = experiment: Disc diffusion assay (DDA); assay type: cell-based, Propionibacterium acnes; details: resistance MLS, 200 μg per disc
Description: as §1, §2, §3, §4

P. acnes PRP-068 = experiment: Disc diffusion assay (DDA); assay type: cell-based, Propionibacterium acnes; details: resistance Ery, 200 μg per disc
Description: as §1, §2, §3, §4

P. acnes PRP-101 = experiment: Disc diffusion assay (DDA); assay type: cell-based, Propionibacterium acnes; details: resistance Tet/MLS, 200 μg per disc
Description: as §1, §2, §3, §4

P. granulosum PPR-006 = experiment: MIC assay; assay type: cell-based
Description: as §1
This is a standard international method for quantitatively assessing the antimicrobial activity of a compound in a liquid medium. The method used a 96-well microtitre plate, capable of holding about 200 μl of liquid per well. […] The culture media were as described above for the relevant test organisms.
The wells were inoculated with a liquid suspension of freshly grown micro-organism and incubated under the conditions described above. After incubation, the microtitre plate was examined visually (with the aid of a light box) for cloudiness in each well, which would indicate microbial growth. The MIC value was recorded as the lowest concentration of test compound required to inhibit microbial growth, i.e., the lowest concentration for which the liquid in the well remained clear.
The assays were conducted in duplicate and included both negative (culture medium only) and positive (culture medium, diluting solvent and inoculum) controls.
The activity of TBHQ was tested against other Propionibacterium spp strains, including some with known antibiotic resistance. MIC, MBC and DDA assays were carried out as described above for each of the strains.

P. acnes PRP-010 = experiment: Disc diffusion assay (DDA); assay type: cell-based, Propionibacterium acnes; details: resistance MLSK, 200 μg per disc
Description: Other propionibacterial strains were also tested, as described in Example 4 below. These included certain antibiotic resistant propionibacteria, such as the two P. acnes strains designated PRP-010 and PRP-039 which are resistant respectively to macrolides-lincosamides-streptogramins-ketolides (MLSK) and to macrolides-lincosamides-streptogramins (MLS) and tetracycline—in other words, PRP-010 is resistant to erythromycin and clindamycin, and PRP-039 to erythromycin, clindamycin and tetracycline.
as §1
A sterile paper disc was impregnated with a sample of the test compound and a minimum of 30 minutes allowed for the solvents to evaporate as far as possible. The disc was then placed on an agar plate onto which the test micro-organism had been inoculated. The plate was then incubated under the conditions described above, following which it was examined visually for signs of bacterial growth. […] The diameter of this zone of “inhibition” was measured using a ProtoCOL™ automated zone sizer (Synbiosis, Cambridge, UK). […]
(§5) The area of the zone of inhibition was calculated from the measured zone diameter (D) using the formula π(D/2)^2. […]

E. faecalis ATCC 29212 = experiment: MBC assay; assay type: cell-based, Enterococcus faecalis
Description: The staphylococci and enterococci were cultured and maintained on Mueller-Hinton Medium (agar and broth) at pH 7.2; they were incubated aerobically at 37° C. for 24 hours.
This assay, normally carried out after an MIC assay, determines the minimum concentration of a compound that is lethal to the micro-organism being tested.
These samples were then individually sub-cultured on non-selective agar medium, under the incubation conditions described above. Following incubation they were examined visually for bacterial growth.
The activity of TBHQ against three other bacterial strains was investigated using MIC, MBC and DDA assays as described above. For the DDA assays, 200 μg of TBHQ was loaded onto each disc, using ethanol as the solvent.

S. pyogenes ATCC 12344 = experiment: Disc diffusion assay (DDA); assay type: cell-based, Streptococcus pyogenes; details: 200 μg per disc
Description: The S. pyogenes strain was cultured and maintained on Mueller-Hinton agar with 5% v/v defibrinated horse blood, and grown in Mueller-Hinton broth supplemented with 5% lysed horse blood (lysed horse blood was prepared as described in the NCCLS M7-A6 Vol. 23 No. 2); cultures were incubated aerobically at 37° C. for 24 hours.
as §2, §5

Compound CC(C)(C)c1cc(O)ccc1O [TBHQ, 2-t-butyl hydroquinone] has an MIC/MBC ratio (S. aureus ATCC 29213 [1]) of 1, a zone of inhibition at 200 µg/disc (S. aureus ATCC 29213 [2]) of 41.8 mm and a DDA (P. acnes PPR-007) of 13.43 mm. For the same compound, the DDA (P. acnes PRP-002) was 28.42 mm, the DDA (P. acnes PRP-003) was 38.01 mm and the DDA (P. acnes PRP-008) was 14.47 mm. The DDA (P. acnes PRP-023) was 23.90 mm, the DDA (P. acnes PRP-046) was 17.46 mm and the DDA (P. acnes PRP-059) was 17.56 mm. It also gave a DDA (P. acnes PRP-068) of 20.89 mm, a DDA (P. acnes PRP-101) of 0.0 mm and an MIC (P. granulosum PPR-006) of 7.8 µg/mL (≈ 46.9 µM). It also gave a DDA (P. acnes PRP-010) of 18.71 mm, an MIC/MBC ratio (E. faecalis ATCC 29212) of 0.5 and a DDA (S. pyogenes ATCC 12344) of 50.67 mm.
